# Laboratory results as given in PubChem BioAssay AID1918955 (Molecular Pharmacology Branch, DTP, NCI, 2023).
# System: NCI/ADR-RES complex spheroid viability
# Experiment: Anticancer human tumor NCI/ADR-RES cell line growth inhibition;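 for viability, T/C: 100% = DMSO vehicle treated spheroids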
# Details: for IC50: curve of first compound; for viability, T/C: stronger effect = lower value
# Procedure, shortened: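 Complex spheroids of tumor cells with HUVEC and human MSCs, exposed to iadademstat combined with other agents. Each agent tested in half-log steps from near clinical Cmax (else 10 microM top), DMSO ≤0.25%.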
# [1] = second compound 0.1 µM, first compound 0.000316 µM
# [2] = second compound 0.1 µM, first compound 0.001 µM
# [3] = second compound 0.1 µM, first compound 0.00316 µM
# [4] = second compound 0.1 µM, first compound 0.01 µM
# [5] = second compound 0.1 µM, first compound 0.0316 µM
# [6] = second compound 0.1 µM, first compound 0.1 µM
# [7] = second compound 0.316 µM, first compound 0.000316 µM
# [8] = second compound 0.316 µM, first compound 0.001 µM
# [9] = second compound 0.316 µM, first compound 0.00316 µM
# [10] = second compound 0.316 µM, first compound 0.01 µM
# [11] = second compound 0.316 µM, first compound 0.0316 µM
# [12] = second compound 0.316 µM, first compound 0.1 µM
# [13] = second compound 1 µM, first compound 0.000316 µM
# [14] = second compound 1 µM, first compound 0.001 µM
# [15] = second compound 1 µM, first compound 0.00316 µM
# [16] = second compound 1 µM, first compound 0.01 µM
# [17] = second compound 1 µM, first compound 0.0316 µM
# [18] = second compound 1 µM, first compound 0.1 µM
# [19] = second compound 3.16 µM, first compound 0.000316 µM
# [20] = second compound 3.16 µM, first compound 0.001 µM
# [21] = second compound 3.16 µM, first compound 0.00316 µM
# [22] = second compound 3.16 µM, first compound 0.01 µM
# [23] = second compound 3.16 µM, first compound 0.0316 µM
# [24] = second compound 3.16 µM, first compound 0.1 µM
# [25] = second compound 10 µM, first compound 0.000316 µM
# [26] = second compound 10 µM, first compound 0.001 µM
# [27] = second compound 10 µM, first compound 0.00316 µM
# [28] = second compound 10 µM, first compound 0.01 µM
# [29] = second compound 10 µM, first compound 0.0316 µM
# [30] = second compound 10 µM, first compound 0.1 µM
smiles,measurement,setting,value
CC(C)CC(NC(=O)C(Cc1ccccc1)NC(=O)c1cnccn1)B(O)O (stereo not given) + NC1CC1c1ccc(-c2cccc(O)c2)cc1,IC50,second compound 0.1 µM,12.2 nM
same,IC50,second compound 0.316 µM,12.7 nM
same,IC50,second compound 1 µM,14.2 nM
same,IC50,second compound 3.16 µM,12.2 nM
same,IC50,second compound 10 µM,11.8 nM
same,"viability, T/C",[1],110%
same,"viability, T/C",[2],102%
same,"viability, T/C",[3],92.2%
same,"viability, T/C",[4],61%
same,"viability, T/C",[5],6.87%
same,"viability, T/C",[6],0.38%
same,"viability, T/C",[7],103%
same,"viability, T/C",[8],103%
same,"viability, T/C",[9],94.6%
same,"viability, T/C",[10],61.7%
same,"viability, T/C",[11],6.88%
same,"viability, T/C",[12],0.32%
same,"viability, T/C",[13],106%
same,"viability, T/C",[14],99.4%
same,"viability, T/C",[15],93.5%
same,"viability, T/C",[16],69%
same,"viability, T/C",[17],7.3%
same,"viability, T/C",[18],0.37%
same,"viability, T/C",[19],97.6%
same,"viability, T/C",[20],98.8%
same,"viability, T/C",[21],87%
same,"viability, T/C",[22],58.2%
same,"viability, T/C",[23],14.1%
same,"viability, T/C",[24],0.23%
same,"viability, T/C",[25],90.5%
same,"viability, T/C",[26],88.8%
same,"viability, T/C",[27],75.4%
same,"viability, T/C",[28],59.6%
same,"viability, T/C",[29],8.55%
same,"viability, T/C",[30],0.36%
CC(C)CC(NC(=O)CNC(=O)c1cc(Cl)ccc1Cl)B1OC(=O)CC(CC(=O)O)(C(=O)O)O1 (stereo not given) + NC1CC1c1ccc(-c2cccc(O)c2)cc1,IC50,second compound 0.1 µM,23.6 nM
same,IC50,second compound 0.316 µM,23.8 nM
same,IC50,second compound 1 µM,25.9 nM
same,IC50,second compound 3.16 µM,19.5 nM
same,IC50,second compound 10 µM,17.7 nM
same,"viability, T/C",[1],101%
same,"viability, T/C",[2],108%
same,"viability, T/C",[3],97.9%
same,"viability, T/C",[4],84.5%
same,"viability, T/C",[5],38.3%
same,"viability, T/C",[6],2.37%
same,"viability, T/C",[7],109%
same,"viability, T/C",[8],104%
same,"viability, T/C",[9],102%
same,"viability, T/C",[10],81.3%
same,"viability, T/C",[11],39.8%
same,"viability, T/C",[12],2.3%
same,"viability, T/C",[13],97.3%
same,"viability, T/C",[14],93.8%
same,"viability, T/C",[15],96.2%
same,"viability, T/C",[16],81.3%
same,"viability, T/C",[17],43.4%
same,"viability, T/C",[18],3.84%
same,"viability, T/C",[19],101%
same,"viability, T/C",[20],94.7%
same,"viability, T/C",[21],88.9%
same,"viability, T/C",[22],80.4%
same,"viability, T/C",[23],28.5%
same,"viability, T/C",[24],4.76%
same,"viability, T/C",[25],90.3%
same,"viability, T/C",[26],88.9%
same,"viability, T/C",[27],81%
same,"viability, T/C",[28],64.9%
same,"viability, T/C",[29],34.9%
same,"viability, T/C",[30],2.76%
COc1cc(Nc2ncc3c(n2)-c2ccc(Cl)cc2C(c2c(F)cccc2OC)=NC3)ccc1C(=O)O + NC1CC1c1ccc(-c2cccc(O)c2)cc1,IC50,second compound 0.1 µM,16.9 nM
same,IC50,second compound 0.316 µM,18.3 nM
same,IC50,second compound 1 µM,17.6 nM
same,IC50,second compound 3.16 µM,19.5 nM
same,IC50,second compound 10 µM,17.1 nM
same,"viability, T/C",[3],86%
same,"viability, T/C",[4],64.9%
same,"viability, T/C",[5],32.5%
same,"viability, T/C",[6],16%
same,"viability, T/C","second compound 0.1 µM, first compound 0.316 µM",15.4%
same,"viability, T/C","second compound 0.1 µM, first compound 1 µM",14.4%
same,"viability, T/C",[9],93.5%
same,"viability, T/C",[10],65.8%
same,"viability, T/C",[11],36.7%
same,"viability, T/C",[12],18%
same,"viability, T/C","second compound 0.316 µM, first compound 0.316 µM",15.7%
same,"viability, T/C","second compound 0.316 µM, first compound 1 µM",17.3%
same,"viability, T/C",[15],89.7%
same,"viability, T/C",[16],62.2%
same,"viability, T/C",[17],38.1%
same,"viability, T/C",[18],19.7%
same,"viability, T/C","second compound 1 µM, first compound 0.316 µM",14.4%
same,"viability, T/C","second compound 1 µM, first compound 1 µM",12%
same,"viability, T/C",[21],88.6%
same,"viability, T/C",[22],63.6%
same,"viability, T/C",[23],41.8%
same,"viability, T/C",[24],19.4%
same,"viability, T/C","second compound 3.16 µM, first compound 0.316 µM",15.9%
same,"viability, T/C","second compound 3.16 µM, first compound 1 µM",11.8%
same,"viability, T/C",[27],79.2%
same,"viability, T/C",[28],57.8%
same,"viability, T/C",[29],41.2%
same,"viability, T/C",[30],23.6%
same,"viability, T/C","second compound 10 µM, first compound 0.316 µM",13%
same,"viability, T/C","second compound 10 µM, first compound 1 µM",11.9%
O=C(C=Cc1cccc(S(=O)(=O)Nc2ccccc2)c1)NO + NC1CC1c1ccc(-c2cccc(O)c2)cc1,IC50,second compound 0.1 µM,79.4 nM
same,IC50,second compound 0.316 µM,85.5 nM
same,IC50,second compound 1 µM,79 nM
same,IC50,second compound 3.16 µM,90 nM
same,IC50,second compound 10 µM,73.3 nM
same,"viability, T/C","second compound 0.1 µM, first compound 0.00949 µM",110%
same,"viability, T/C","second compound 0.1 µM, first compound 0.03 µM",85.7%
same,"viability, T/C","second compound 0.1 µM, first compound 0.0949 µM",42.1%
same,"viability, T/C","second compound 0.1 µM, first compound 0.3 µM",17.2%
same,"viability, T/C","second compound 0.1 µM, first compound 0.949 µM",5.63%
same,"viability, T/C","second compound 0.1 µM, first compound 3 µM",1.57%
same,"viability, T/C","second compound 0.316 µM, first compound 0.00949 µM",102%
same,"viability, T/C","second compound 0.316 µM, first compound 0.03 µM",86.8%
same,"viability, T/C","second compound 0.316 µM, first compound 0.0949 µM",44.9%
same,"viability, T/C","second compound 0.316 µM, first compound 0.3 µM",17.3%
same,"viability, T/C","second compound 0.316 µM, first compound 0.949 µM",7.86%
same,"viability, T/C","second compound 0.316 µM, first compound 3 µM",1.94%
same,"viability, T/C","second compound 1 µM, first compound 0.00949 µM",107%
same,"viability, T/C","second compound 1 µM, first compound 0.03 µM",77.5%
same,"viability, T/C","second compound 1 µM, first compound 0.0949 µM",46%
same,"viability, T/C","second compound 1 µM, first compound 0.3 µM",18.2%
same,"viability, T/C","second compound 1 µM, first compound 0.949 µM",8.7%
same,"viability, T/C","second compound 1 µM, first compound 3 µM",1.47%
same,"viability, T/C","second compound 3.16 µM, first compound 0.00949 µM",97%
same,"viability, T/C","second compound 3.16 µM, first compound 0.03 µM",76.4%
same,"viability, T/C","second compound 3.16 µM, first compound 0.0949 µM",49.8%
same,"viability, T/C","second compound 3.16 µM, first compound 0.3 µM",22.1%
same,"viability, T/C","second compound 3.16 µM, first compound 0.949 µM",9.4%
same,"viability, T/C","second compound 3.16 µM, first compound 3 µM",1.58%
same,"viability, T/C","second compound 10 µM, first compound 0.00949 µM",102%
same,"viability, T/C","second compound 10 µM, first compound 0.03 µM",71.5%
same,"viability, T/C","second compound 10 µM, first compound 0.0949 µM",44.1%
same,"viability, T/C","second compound 10 µM, first compound 0.3 µM",22.5%
same,"viability, T/C","second compound 10 µM, first compound 0.949 µM",13.5%
same,"viability, T/C","second compound 10 µM, first compound 3 µM",3.92%
